Reference: patent US11325907B2, “Crystal form of 1H-imidazo[4,5-b]pyridine-2(3H)-one compound and preparation process therefor” (MEDSHINE DISCOVERY INC., priority 2018, dated 2022)

Key:
Type in all cases: physicochemical
[1] = Solid stability test under accelerated conditions (40° C./Relative Humidity 75%, sealed)
Procedure: (§1) Content Determination Method
(§2) Device: Agilent 1260 High Performance Liquid Chromatograph with DAD detector or Shimadzu LC-20A High Performance Liquid Chromatograph with PDA detector
(§3) Detailed Chromatographic parameters are as follows:
(§4) Chromatographic column: Agilent Eclipse plus C18 (4.6 mm×150 mm, 3.5 μm)
(§5) Column temperature: 40° C.
(§6) Detecting wavelength: 230 nm
(§7) Mobile Phase A: 0.04% trifluoroacetic acid aqueous solution (V/V)
(§8) Mobile Phase B: acetonitrile
(§9) Diluent: acetonitrile: purified water=3:1 (v/v)
(§10) Probe Wash: acetonitrile: purified water=3:1 (v/v)
(§11) Gradient elution procedure: […]
Each layer of the low-density polyethylene bag was buckled and sealed respectively and then the bag was placed in an aluminum foil bag and heat-sealed. The samples were taken on the 1st, 2nd, 3rd and 6th months for testing, and the test results were compared with the initial test results of day 0.

[2] = as above; details: 6th month
[3] = Stability tests of Crystal Form A in different solvents; details: for Status (after 2 days): 50 mg, stirred at 40° C. for 2 days
Procedure: The solids in all samples were collected and dried in vacuum drying oven (40° C.) overnight. The crystal forms were tested for XRPD.

[4] = Solid stability test at high temperature, high humidity and strong light
Procedure: as §1, §2, §3, §4, §5, §6, §7, §8, §9, §10, §11
The samples placed under high temperature and high humidity conditions were placed in a desiccator for inspection, and the samples were taken on the 5th, 10th and 30th days for testing, and the test results were compared with the initial test results of day 0. The samples placed under strong light were covered with a transparent lid with a sealing film, and the samples were taken on the 5th and 10th days for testing, and the test results were compared with the initial test results on day 0.

[5] = Hygroscopicity test (Dynamic Vapor Sorption); details: 25° C. and 80% RH, DVS
Procedure: Device: SEM Advantage-1 Dynamic Vapor Sorption apparatus
Testing conditions: The sample (10-20 mg) is placed in DVS sample disk for testing.
Balance: dm/dt=0.01%/min (min: 10 min, max: 180 min)
Drying: drying at 0% RH for 120 min
RH (%) testing gradient: 10%
RH (%) testing gradient range: 0% -90%-0%
The hygroscopicity is categorized as follows:
SEM DVS Advantage-1 Dynamic Vapor Sorption instrument

[6] = Batch 1, 40° C./Relative Humidity 75%, Sealed, 1st month
[7] = Batch 1, 40° C./Relative Humidity 75%, Sealed, 2nd month
[8] = Batch 1, 40° C./Relative Humidity 75%, Sealed, 3rd month
[9] = Batch 1, 40° C./Relative Humidity 75%, Sealed, 6th month
[10] = Batch 2, 40° C./Relative Humidity 75%, Sealed, 1st month
[11] = Batch 2, 40° C./Relative Humidity 75%, Sealed, 2nd month
[12] = Batch 2, 40° C./Relative Humidity 75%, Sealed, 3rd month
[13] = Batch 2, 40° C./Relative Humidity 75%, Sealed, 6th month
[14] = Batch 3, 40° C./Relative Humidity 75%, Sealed, 1st month
[15] = Batch 3, 40° C./Relative Humidity 75%, Sealed, 2nd month
[16] = Batch 3, 40° C./Relative Humidity 75%, Sealed, 3rd month
[17] = Batch 3, 40° C./Relative Humidity 75%, Sealed, 6th month
[18] = Batch 1, 40° C./Relative Humidity 75%
[19] = Batch 3, 40° C./Relative Humidity 75%
[20] = High humidity (Room Temperature/Relative Humidity 92.5%, Open), Day 5
[21] = High humidity (Room Temperature/Relative Humidity 92.5%, Open), Day 10
[22] = High humidity (Room Temperature/Relative Humidity 92.5%, Open), Day 30
[23] = High temperature (60° C., Open), Day 5
[24] = High temperature (60° C., Open), Day 10
[25] = High temperature (60° C., Open), Day 30
[26] = Strong light (4500 ± 500 lux, 90 μw/cm^2, Sealed), Day 5
[27] = Strong light (4500 ± 500 lux, 90 μw/cm^2, Sealed), Day 10

Appearance [1, 6]: White powder
Content [1, 6]: 99.3%
Total Impurity [1, 6]: 0.09%
Appearance [1, 7]: White powder
Content [1, 7]: 99.1%
Total Impurity [1, 7]: 0.09%
Appearance [1, 8]: White powder
Content [1, 8]: 99.5%
Total Impurity [1, 8]: 0.09%
Content [1, 9]: 100.1%
Total Impurity [1, 9]: 0.10%
Appearance ([1]; Batch 1, Day 0): White powder
Content ([1]; Batch 1, Day 0): 99.4%
Crystal Form (XRPD) ([1]; Batch 1, Day 0): Crystal Form A
Total Impurity ([1]; Batch 1, Day 0): 0.09%
Appearance [1, 10]: White powder
Content [1, 10]: 99.1%
Total Impurity [1, 10]: 0.11%
Appearance [1, 11]: White powder
Content [1, 11]: 99.0%
Total Impurity [1, 11]: 0.11%
Appearance [1, 12]: White powder
Content [1, 12]: 99.2%
Total Impurity [1, 12]: 0.10%
Appearance [1, 13]: White powder
Content [1, 13]: 100.5%
Crystal Form (XRPD) [1, 13]: Crystal Form A
Total Impurity [1, 13]: 0.12%
Appearance ([1]; Batch 2, Day 0): White powder
Content ([1]; Batch 2, Day 0): 99.4%
Crystal Form (XRPD) ([1]; Batch 2, Day 0): Crystal Form A
Total Impurity ([1]; Batch 2, Day 0): 0.10%
Appearance [1, 14]: White powder
Content [1, 14]: 98.8%
Total Impurity [1, 14]: 0.16%
Appearance [1, 15]: White powder
Content [1, 15]: 98.9%
Total Impurity [1, 15]: 0.16%
Appearance [1, 16]: White powder
Content [1, 16]: 99.2%
Total Impurity [1, 16]: 0.16%
Content [1, 17]: 100.0%
Total Impurity [1, 17]: 0.11%
Appearance ([1]; Batch 3, Day 0): White powder
Content ([1]; Batch 3, Day 0): 99.5%
Crystal Form (XRPD) ([1]; Batch 3, Day 0): Crystal Form A
Total Impurity ([1]; Batch 3, Day 0): 0.11%
Solid stability (conclusion) ([1]; accelerated conditions of 40° C./Relative Humidity 75%): good stability
Appearance [2, 18]: White powder
Crystal Form (XRPD) [2, 18]: Crystal Form A
Appearance [2, 19]: White powder
Crystal Form (XRPD) [2, 19]: Crystal Form A
Status (after 2 days) ([3]; Acetone 0.4 mL): Suspension
Status (after 2 days) ([3]; Acetone:Water (1:2) 0.4 mL): Suspension
Status (after 2 days) ([3]; Acetonitrile 0.4 mL): Suspension
Status (after 2 days) ([3]; Acetonitrile:Water (1:1) 0.4 mL): Suspension
Status (after 2 days) ([3]; Ethanol 0.4 mL): Suspension
Status (after 2 days) ([3]; Ethanol:Water (3:1) 0.4 mL): Suspension
Status (after 2 days) ([3]; Ethyl Acetate 0.4 mL): Suspension
Status (after 2 days) ([3]; Methanol 0.4 mL): Suspension
Status (after 2 days) ([3]; Methanol:Water (3:1) 0.4 mL): Suspension
Status (after 2 days) ([3]; Tetrahydrofuran 0.3 mL): Suspension
Stability in solvents (conclusion) ([3]; alcohol solvent, acetonitrile, acetone, ethyl acetate, tetrahydrofuran and mixed solvents with water): good stability
Appearance ([4]; Day 0 (initial)): White
Content ([4]; Day 0 (initial)): 99.5%
Total Impurity ([4]; Day 0 (initial)): 0.11%
Appearance [4, 20]: White
Content [4, 20]: 99.0%
Total Impurity [4, 20]: 0.16%
Appearance [4, 21]: White
Content [4, 21]: 98.9%
Total Impurity [4, 21]: 0.16%
Appearance [4, 22]: White
Content [4, 22]: 99.0%
Total Impurity [4, 22]: 0.16%
Appearance [4, 23]: White
Content [4, 23]: 99.2%
Total Impurity [4, 23]: 0.16%
Appearance [4, 24]: White
Content [4, 24]: 98.8%
Total Impurity [4, 24]: 0.16%
Appearance [4, 25]: White
Content [4, 25]: 99.0%
Total Impurity [4, 25]: 0.16%
Appearance [4, 26]: White
Content [4, 26]: 98.8%
Total Impurity [4, 26]: 0.11%
Appearance [4, 27]: White
Content [4, 27]: 98.6%
Total Impurity [4, 27]: 0.11%
Solid stability (conclusion) ([4]; high temperature, high humidity or strong light conditions): good stability
Hygroscopic Category [5]: no or little hygroscopicity
ΔW (hygroscopic weight gain) [5]: 0.08%
Compound: CCOc1cc([C@@H](CS(C)(=O)=O)n2c(=O)[nH]c3c(C)c(-c4ccccc4F)cnc32)ccc1OC [Crystal Form A of Compound 1]
